Measured values taken from patent US20230314454A1, “BLOOD COAGULATION TEST REAGENT, AND BLOOD COAGULATION TEST METHOD” (Thrombo Translational Research Lab Inc., priority 2020, published 2023).

Key:
[1] = test system: thrombin generation in plasma; test: Thrombin generation in plasma over time after taking apixaban; type: in vivo, human; conditions: patients #004 and #005, 10 mg apixaban taken
Procedure: (§1) In test, plasma specimens were prepared by centrifugation of blood that was collected using an anticoagulant citric acid. The plasma specimens were frozen at −80° C. until the test starts, and thawed at 37° C. immediately before the test, and used.
The thrombin generation initiation reagent was prepared by mixing the following reagents. […]
(§2) To quantify the generated thrombin, the thrombin detection reagent containing EDTA, which was a reaction stopping reagent, was then added to the plasma, followed by incubation at 37° C. for 1 minute. Since thrombin hydrolyzed the thrombin fluorogenic substrate to emit fluorescence during the incubation, the fluorescence intensity was measured using a fluorescence plate reader (excitation wavelength: 355 nm, fluorescence wavelength: 460 nm). The measured fluorescence intensity was converted into the thrombin concentration based on a standard curve constructed using a thrombin standard substance (Technothrombin TGA calibrator, purchased from Cosmo Bio Co., Ltd.). The thrombin generation in the plasma was expressed as a relative ratio (%) with respect to the thrombin generation in control plasma (Siemens control plasma N for blood coagulation test, purchased from SYSMEX CORPORATION). […]

[2] = test system: thrombin generation in patient plasma; test: Thrombin generation test (TF/FXIa initiation reagent), apixaban spiked into patient plasma; type: biochemical, human
Procedure: as §1
(§3) The thrombin generation initiation reagent was prepared by mixing the following reagents. The thrombin formation initiation reagent was appropriately diluted with 50 mM tris buffer solution containing 0.5% bovine serum albumin (purchased from FUJIFILM Wako Pure Chemical Corporation) and 0.15 M sodium chloride (purchased from FUJIFILM Wako Pure Chemical Corporation) (BSA/TBS, pH 7.4). • Human TF (Dade Innovin, purchased from SYSMEX CORPORATION) solution • Human FXIa (purchased from Funakoshi Co., Ltd.) solution • Synthetic phospholipids (purchased from Haematex) solution • Calcium chloride (purchased from FUJIFILM Wako Pure Chemical Corporation) solution […]
To quantify the generated thrombin, the thrombin detection reagent containing EDTA, which was a reaction stopping reagent, was then added to the plasma, followed by incubation at 37° C. for 1 minute. Since thrombin hydrolyzed the thrombin fluorogenic substrate to emit fluorescence during the incubation, the fluorescence intensity was measured using a fluorescence plate reader (excitation wavelength: 355 nm, fluorescence wavelength: 460 nm). The measured fluorescence intensity was converted into the thrombin concentration based on a standard curve constructed using a thrombin standard substance (Technothrombin TGA calibrator, purchased from Cosmo Bio Co., Ltd.). The thrombin generation in the plasma was expressed as a relative ratio (%) with respect to the thrombin generation in control plasma (Siemens control plasma N for blood coagulation test, purchased from SYSMEX CORPORATION).
To test inhibitory effect of the DOACs on thrombin generation, Test specimens were prepared by spiking rivaroxaban, apixaban, or edoxaban into plasma, and the thrombin generation in the plasma was assessed. […]

[3] = test system: blood coagulant activity (clotting time); test: Blood coagulation tests APTT and PT-INR in plasma after taking apixaban; type: in vivo, human; conditions: patients #004 and #005, after taking 10 mg apixaban
Procedure: The coagulant activity of each of the test plasma specimen was tested using APTT and PT-INR test methods as blood coagulation tests. In both methods, the coagulant activity was determined by measuring clotting time after adding the coagulation initiation reagent into plasma specimens.

[4] = test system: thrombin generation in control plasma; test: Thrombin generation test (TF/FXIa initiation reagent), DOACs spiked into control plasma; type: biochemical, human; conditions: DOAC added to control plasma at 18.5 ng/mL to 500 ng/mL; FIG. 2
Procedure: as §3
as §2, with “Ltd.).” for “Ltd.). The thrombin generation in the plasma was expressed as a relative ratio (%) with respect to the thrombin generation in control plasma (Siemens control plasma N for blood coagulation test, purchased from SYSMEX CORPORATION).”

| Compound | change in thrombin generation after taking apixaban [1] | effect of apixaban addition on thrombin generation in patient plasma ([2]; apixaban 125, 250 or 500 ng/mL, plasma of patients #001, #002, #003, 150 fM TF, 12.5 pM FXIa) | thrombin generation relative to control plasma ([2]; plasma of patient #003 after adding apixaban (125-500 ng/mL)) [%] | thrombin generation relative to control plasma ([2]; plasma of patients #001 and #002 after adding apixaban (125-500 ng/mL)) [%] | change in blood coagulant activities measured by APTT and PT-INR [3] | inhibitory effect on thrombin generation compared among the three DOACs [4] |
| --- | --- | --- | --- | --- | --- | --- |
| COc1ccc(-n2nc(C(N)=O)c3c2C(=O)N(c2ccc(N4CCCCC4=O)cc2)CC3)cc1 [apixaban] | decreased with increase in apixaban concentrations | suppressed thrombin generation in the plasma from the patient in a dose-dependent fashion | 25 | ≤ 5 | no significant alteration | – |
| O=C(NC[C@H]1CN(c2ccc(N3CCOCC3=O)cc2)C(=O)O1)c1ccc(Cl)s1 [rivaroxaban] | – | – | – | – | – | strongest inhibitory effect |
